Measured values published in US20230115416A1, “COMPOSITIONS AND METHODS FOR PROMOTING CELLULAR METABOLIC FITNESS” (priority 2021, published 2023).

Columns and labels:
NMDAR = conditions: by blocking adenosine receptor; cited from earlier work
NMDAR glycine site = NMDAR glycine site (Homo sapiens, UniProt Q05586); assay: Modulation of the NMDAR glycine site in embodiments; conditions: in embodiments of the invention
[1] = Tinnitus side effect of CMF modulator treatment; assay type: in vivo, human
hair regrowth = conditions: topical petroleum jelly composition, up to 10% by weight, shaved skin of mice; cited from earlier work
NMDAR glutamate site = conditions: laboratory studies; cited from earlier work

In the case of Cn1c(=O)c2c(ncn2C)n(C)c1=O [Caffeine], the NMDAR stimulation (NMDAR) is given as “stimulates NMDAR at low micromolar concentrations”.
With NCCS(=O)(=O)O [Taurine] the “modulation of the NMDAR glycine site” value (NMDAR glycine site) was “stronger negative modulation effects”.
In the case of N[C@@H](CCC(=O)O)C(=O)O [glutamic acid], the tinnitus ([1]; dosed sublingually or topically) is listed as “issues related to tinnitus have been observed” and the “rate of hair regrowth” value (hair regrowth) is listed as “increases the rate of hair regrowth”.
In the case of O=C1CC[C@@H](C(=O)O)N1 [pyroglutamic acid], the “modulation of the NMDAR glutamate site” value (NMDAR glutamate site) is given as “negative modulator” and the tinnitus ([1]; dosed orally) is given as “issues related to tinnitus have been observed”.
